The results in this text go back to patent US20230330254A1 (Regeneron Pharmaceuticals, Inc., priority 2022, published 2023).

In general, EC50 refers to the concentration needed to bring the measured effect to its halfway point.

In one test the test system is HEK293/CRE-Luc cells. In words: Luciferase reporter assay, HEK293/CRE-Luc cells without GLP1R (Example 17). The test is classed as cell-based, human. The conditions noted are these: HEK293/CRE-Luc cells without hGLP1R, payloads and linker-payloads; for EC50: read-out: EC50. The source says:
(§1) To test the activity of GLP1R agonist payloads, GLP1R agonist linker-payloads (LPs), and anti-GLP1R antibody tethered drug conjugates (ATDCs) of the invention, a cell-based cAMP responsive luciferase reporter assay was developed. To generate the assay cell line, the firefly luciferase gene was placed under the control of a cAMP response element (CRE) located upstream of a minimal promoter and transfected into HEK293 cells and referred to herein as HEK293/CRE-Luc cells.
(§2) Three-fold serial dilutions of free payloads or LPs were prepared in 100% DMSO, transferred to fresh assay media, and added to the cells at a final constant DMSO concentration of 0.2%. The last well in the plate served as a blank control containing only the assay media and 0.2% DMSO (untreated well) and was plotted as a continuation of the 3-fold serial dilution. Four to six hours later, luciferase activity was determined after the addition of One-Glo™ reagent (Promega, Cat #E6130) to each well. Relative light units (RLUs) were measured on an Envision luminometer (PerkinElmer) and EC50 values were determined using a four-parameter logistic equation over a 12-point dose response curve (GraphPad Prism). The signal to noise (S/N) was determined by taking the ratio of the highest RLU on the dose response curve to the RLU in the untreated wells. Data was generated across several experiments (A-E) with M2361 serving as a reference standard in each experiment to calculate the payload relative potency ((M2361 EC50/payload EC50)*100)) and relative S/N ((payload SN/M2361 SN)*100)).
A general note: Reporter assays use an easily measured gene product as a stand-in for the process of interest.

The target of test [1] is T1, human GLP1R (Homo sapiens, UniProt P43220). Kind of test: Luciferase reporter assay, HEK293/CRE-Luc/hGLP1R (Example 17). Type of test: cell-based. Set-up: engineered to express full-length human GLP1R, cynomolgus GLP1R; expressed in transfected cells; host or cells: HEK293/CRE-Luc. The note with it: HEK293/CRE-Luc/hGLP1R; for S/N: highest RLU / RLU of untreated wells; for EC50: payloads and linker-payloads, experiments A-E, M2361 repeated in each, read-out: EC50; for Relative Potency (% M2361 EC50) / Relative Signal:Noise (% M2361): relative to M2361 of the same experiment.
From the text: as §1, §2

Test [2] deals with T1, human GLP1R. Kind of test: Human GLP1R cAMP accumulation assay. The test is classed as cell-based. The note with it: HEK293/hGLP1R cells; Table 4; read-out: cAMP EC50. Set-up: HEK293 cells over-expressing full length human GLP-1R were utilized; expressed in transfected cells; host or cells: HEK293 (HEK293/hGLP1R). As to the method:
8.1 Human GLP1R cAMP Accumulation Assay (Cyclic AMP Determination)
The functional activity of the test compounds for agonizing GLP1R were evaluated using a cell-based assay. For the assay, HEK293 cells over-expressing full length human GLP-1R were utilized and the downstream cAMP accumulation was assessed as a measure of human GLP-1R stimulation. […] Diluted compounds were transferred to OptiPlates (100 nL/well) using an Echo liquid handler. HEK293/hGLP1R cells were thawed in 37° C. water-bath, washed 2 times with HBSS and re-suspended in assay buffer (HBSS+5 mM HEPES+500 μM IBMX+0.1% BSA). […] After centrifugation, the assay plate was incubated at 23° C. for 30 min. The reaction was terminated by adding 10 μL of lysis buffer containing D2-cAMP and a cAMP-antibody from the cyclic AMP immunoassay kit (Cisbio, Cat #62AM4PEJ). […] The levels of cAMP per well were calculated using a standard curve generated by GraphPad Prism. Percent activity was calculated according to the formula (% Activity=100%*(cAMP level-LC)/(HC-LC)). EC50 values were fitted from a four-parameter logistic equation over a 10-point response curve (GraphPad Prism).
(cAMP levels reflect the balance of adenylyl cyclase and phosphodiesterase activity.)

Structures are written as SMILES. *1 amine or outer side, *2 acyl side, *3 side chain or, on linkers, in order; H or OH if unused. Where a SMILES comes first, the peptide text is derived from it. [ ]: non-standard residue; d: D form. The star is where a group is joined. Bip(2'-Et-4'-O(CH2)4NH2) = CCc1cc(OCCCCN[*:3])ccc1-c1ccc(C[C@H](N[*:1])C(=O)[*:2])cc1; Malonyl(2,2-Me2,histaminyl) = CC(C)(C(=O)NCCc1cnc[nH]1)C(=O)*; X7 = O=C(NCCOCCOCCOCCOC(=O)*)OC[C@@H]1[C@@H]2CCC#CCC[C@@H]21; Nva(5-(3,5-Me2Ph)) = Cc1cc(C)cc(CCC[C@H](N)C(=O)O)c1; Ala(1H-tetrazol-5-yl) = N[C@@H](Cc1nnn[nH]1)C(=O)O; αMePhe(2-F) = C[C@](N)(Cc1ccccc1F)C(=O)O

T1 sequence (P43220 24-463): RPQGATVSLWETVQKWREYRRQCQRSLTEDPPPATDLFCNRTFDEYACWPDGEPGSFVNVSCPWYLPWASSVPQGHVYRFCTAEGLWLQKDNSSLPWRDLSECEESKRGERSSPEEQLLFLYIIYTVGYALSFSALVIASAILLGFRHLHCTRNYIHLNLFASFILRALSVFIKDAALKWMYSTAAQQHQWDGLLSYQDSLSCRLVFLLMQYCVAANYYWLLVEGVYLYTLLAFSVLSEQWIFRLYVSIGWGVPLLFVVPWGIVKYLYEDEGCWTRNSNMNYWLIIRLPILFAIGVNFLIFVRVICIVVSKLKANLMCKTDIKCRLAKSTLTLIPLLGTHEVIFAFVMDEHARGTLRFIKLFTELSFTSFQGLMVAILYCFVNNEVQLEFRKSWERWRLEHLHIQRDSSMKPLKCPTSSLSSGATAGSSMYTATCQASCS

In the case of `CCc1cc(OC)ccc1-c1ccc(C[C@H](NC(=O)[C@H](CC(=O)O)NC(=O)[C@H](CO)NC(=O)C(NC(=O)[C@](C)(Cc2ccccc2F)NC(=O)[C@@H](NC(=O)CNC(=O)[C@H](Cc2nn[nH]n2)NC(=O)C(C)(C)C(=O)NCCc2cnc[nH]2)[C@@H](C)O)[C@@H](C)O)C(=O)N[C@@H](CCCc2ccc(OCCCCN)cc2)C(N)=O)cc1` (stereo in doubt) [P24], in the test on HEK293/CRE-Luc cells, the S/N was found to be 1.0 and the half-maximal effective concentration (EC50) is greater than 200 nM. On human GLP1R [1], the S/N is 65.0, the 50% effective concentration (EC50) was determined as 0.0316 nM, the “Relative Potency (% M2361 EC50)” value turned out to be 16.8% and the “Relative Signal:Noise (% M2361)” value is listed as 98.9%. The EC50 on human GLP1R [2] came out at 0.136 nM.
As for `CCc1cc(OCCCCNC(=O)OCCOCCOCCOCCNC(=O)OC[C@@H]2[C@@H]3CCC#CCC[C@@H]32)ccc1-c1ccc(C[C@H](NC(=O)[C@H](CC(=O)O)NC(=O)[C@H](CO)NC(=O)[C@@H](NC(=O)[C@](C)(Cc2ccccc2F)NC(=O)[C@@H](NC(=O)CNC(=O)[C@H](Cc2nn[nH]n2)NC(=O)C(C)(C)C(=O)NCCc2cnc[nH]2)[C@@H](C)O)[C@@H](C)O)C(=O)N[C@@H](CCCc2cc(C)cc(C)c2)C(N)=O)cc1` [LP5, BCN-PEG4-carba-mate P9] ({Malonyl(2,2-Me2,histaminyl)}-[Ala(1H-tetrazol-5-yl)]GT[αMePhe(2-F)]TSD[Bip(2'-Et-4'-O(CH2)4NH2)](X7)[Nva(5-(3,5-Me2Ph))]-NH2), in the test with HEK293/CRE-Luc cells, the S/N is 1.8 and the EC50 is greater than 200 nM. For the same compound, at human GLP1R [1], the S/N was 54.8, the concentration giving a half-maximal response (EC50) is 0.0242 nM, the “Relative Potency (% M2361 EC50)” value worked out at 21.9% and the “Relative Signal:Noise (% M2361)” value is reported as 83.4%. In addition, at human GLP1R [2], the EC50 worked out at 0.044 nM.
In the case of `CCc1cc(OCCCCNC(=O)[C@H](CO)NC(=O)CNC(=O)CNC(=O)CNC(=O)CNC(=O)CCC(=O)N2Cc3ccccc3C#Cc3ccccc32)ccc1-c1ccc(C[C@H](NC(=O)[C@H](CC(=O)O)NC(=O)[C@H](CO)NC(=O)[C@@H](NC(=O)[C@](C)(Cc2ccccc2F)NC(=O)[C@@H](NC(=O)CNC(=O)[C@H](Cc2nn[nH]n2)NC(=O)C(C)(C)C(=O)NCCc2cnc[nH]2)[C@@H](C)O)[C@@H](C)O)C(=O)N[C@@H](CCCc2cc(C)cc(C)c2)C(N)=O)cc1` [LP6, DIBAC- suc-G4S- P9], in the test with HEK293/CRE-Luc cells, the S/N stood at 1.4 and the concentration giving a half-maximal response (EC50) is greater than 200 nM. For the same compound, at human GLP1R [1], the S/N is listed as 65.7, the concentration for a half-maximal effect (EC50) worked out at 0.0251 nM, the “Relative Potency (% M2361 EC50)” value is listed as 21.2% and the “Relative Signal:Noise (% M2361)” value is reported as 99.9%. Besides, on human GLP1R [2], the concentration for a half-maximal effect (EC50) stood at 0.436 nM.
Turning to `CCc1cc(OCCCCNC(=O)CNC(=O)CNC(=O)CNC(=O)CNC(=O)[C@H](CO)NC(=O)CCC(=O)N2Cc3ccccc3C#Cc3ccccc32)ccc1-c1ccc(C[C@H](NC(=O)[C@H](CC(=O)O)NC(=O)[C@H](CO)NC(=O)[C@@H](NC(=O)[C@](C)(Cc2ccccc2F)NC(=O)[C@@H](NC(=O)CNC(=O)[C@H](Cc2nn[nH]n2)NC(=O)C(C)(C)C(=O)NCCc2cnc[nH]2)[C@@H](C)O)[C@@H](C)O)C(=O)N[C@@H](CCCc2cc(C)cc(C)c2)C(N)=O)cc1` [LP7, DIBAC-suc-SG4-P9], in the test on HEK293/CRE-Luc cells, the S/N is listed as 1.1 and the EC50 is greater than 200 nM. At human GLP1R [1], the S/N was 55.3, the EC50 was found to be 0.00972 nM, the “Relative Potency (% M2361 EC50)” value came to 54.6% and the “Relative Signal:Noise (% M2361)” value was 84.1%. Further, the concentration giving a half-maximal response (EC50) at human GLP1R [2] was 0.378 nM.
Take `CCc1cc(OCCCCn2cc(COCCOCCOCCOCCNC(=O)OC[C@@H]3[C@@H]4CCC#CCC[C@@H]43)nn2)ccc1-c1ccc(C[C@H](NC(=O)[C@H](CC(=O)O)NC(=O)[C@H](CO)NC(=O)[C@@H](NC(=O)[C@](C)(Cc2ccccc2F)NC(=O)[C@@H](NC(=O)CNC(=O)[C@H](Cc2nn[nH]n2)NC(=O)C(C)(C)C(=O)NCCc2cnc[nH]2)[C@@H](C)O)[C@@H](C)O)C(=O)N[C@@H](CCCc2cc(C)cc(C)c2)C(N)=O)cc1` [LP9, BCN-PEG4-triazole-P8]: in the test with HEK293/CRE-Luc cells, the S/N stood at 1.3 and the EC50 is greater than 200 nM. At human GLP1R [1], the S/N is listed as 73.8, the EC50 was found to be 0.0174 nM, the “Relative Potency (% M2361 EC50)” value is on record as 30.5% and the “Relative Signal:Noise (% M2361)” value was 112.2%. Besides, the EC50 at human GLP1R [2] is 0.078 nM.
For `CCc1cc(OCCCCNC(=O)[C@H](CO)NC(=O)CNC(=O)CNC(=O)CNC(=O)CNC(=O)CCC(=O)N2Cc3ccccc3C#Cc3ccccc32)ccc1-c1ccc(C[C@H](NC(=O)[C@H](CC(=O)O)NC(=O)[C@H](CO)NC(=O)[C@@H](NC(=O)[C@](C)(Cc2ccccc2F)NC(=O)[C@@H](NC(=O)CNC(=O)[C@H](Cc2nn[nH]n2)NC(=O)C(C)(C)C(=O)NCCc2cnc[nH]2)[C@@H](C)O)[C@@H](C)O)C(=O)N[C@@H](CCCc2cc(C)cc(C)c2)C(=O)Nc2ccccc2)cc1` [LP15, DIBAC- suc-G4S- P23], in the test on HEK293/CRE-Luc cells, the S/N was determined as 1.5 and the EC50 was greater than 200 nM. Further, on human GLP1R [1], the S/N stood at 48.1, the 50% effective concentration (EC50) is 0.0704 nM, the “Relative Potency (% M2361 EC50)” value turned out to be 7.5% and the “Relative Signal:Noise (% M2361)” value is 73.2%. Also, the concentration for a half-maximal effect (EC50) on human GLP1R [2] was 0.649 nM.
Take `CCc1cc(OCCCCNC(=O)CNC(=O)CNC(=O)CNC(=O)CNC(=O)[C@H](CO[C@@H]2O[C@H](CO)[C@@H](O)[C@H](O)[C@H]2O)NC(=O)CCNC(=O)OC[C@@H]2[C@@H]3CCC#CCC[C@@H]32)ccc1-c1ccc(C[C@H](NC(=O)[C@H](CC(=O)O)NC(=O)[C@H](CO)NC(=O)[C@@H](NC(=O)[C@](C)(Cc2ccccc2F)NC(=O)[C@@H](NC(=O)CNC(=O)[C@H](Cc2nn[nH]n2)NC(=O)C(C)(C)C(=O)NCCc2cnc[nH]2)[C@@H](C)O)[C@@H](C)O)C(=O)N[C@@H](CCCc2cc(C)cc(C)c2)C(N)=O)cc1` [LP18, BCN NHC2 H4CO (glucose) SG4-P9]: in the test with HEK293/CRE-Luc cells, the S/N came out at 1.1 and the half-maximal effective concentration (EC50) was greater than 200 nM. Moreover, on human GLP1R [1], the S/N was found to be 62.1, the EC50 amounted to 0.0467 nM, the “Relative Potency (% M2361 EC50)” value came out at 11.4% and the “Relative Signal:Noise (% M2361)” value is on record as 94.4%. Further, the EC50 at human GLP1R [2] turned out to be 0.458 nM.
As for `CCc1cc(OCCCCN)ccc1-c1ccc(C[C@H](NC(=O)[C@H](CC(=O)O)NC(=O)[C@H](CO)NC(=O)[C@@H](NC(=O)[C@](C)(Cc2ccccc2F)NC(=O)[C@@H](NC(=O)CNC(=O)[C@@H](N)CCC(N)=O)[C@@H](C)O)[C@@H](C)O)C(=O)N[C@@H](CCCc2cc(C)cc(C)c2)C(N)=O)cc1` [P20, (3S)-4-[[(1S)-1-[[4-[4-(4-aminobutoxy)-2-ethyl-phenyl]phenyl]methyl]-2-[[(1S)-1-carbamoyl-4-(3,5-dimethylphenyl)butyl]amino]-2-oxo-ethyl]amino]-3-[[(2S)-2-[[(2S,3R)-2-[[(2S)-2-[[(2S,3R)-2-[[2-[[(2S)-2,5-diamino-5-oxopentanoyl]amino]acetyl]amino]-3-hydroxy-butanoyl]amino]-3-(2-fluorophenyl)-2-methyl-propanoyl]amino]-3-hydroxybutanoyl]amino]-3-hydroxy-propanoyl]amino]-4-oxo-butanoic acid], the half-maximal effective concentration (EC50) at human GLP1R [2] is 0.37 nM.
